Measured values taken from patent US20240342168A1, “SMALL MOLECULE INHIBITORS FOR ANTI-CANCER COMBINATION THERAPY” (UNIVERSITY OF CAPE TOWN, priority 2021, published 2024).

Tests used:
HeLa cells [1] = experiment: Drug washout experiments (MTT); assay type: cell-based
Protocol: Cells were plated in 96-well plates and subjected to 2 h INI-43 pre-treatment followed by cisplatin treatment, with or without removing INI-43 from the media, for 48 h. Following treatment, MTT (Sigma) was added and 4 h later crystals solubilized using 10% SLS in 0.01 M HCl.

HeLa cells [2] = experiment: Caspase-3/7 assay (Caspase-Glo 3/7); assay type: cell-based; conditions: INI-43 pre-treatment plus cisplatin, 48 h
Protocol: (§1) Cells were subjected to single or CT for 48 h, and caspase-3/7 activity monitored using the Promega Caspase-Glo^R 3/7 assay, according to the manufacturer's instructions. Luminescence was measured using the Veritas™ microplate luminometer (Promega) and results standardized to viable cells in each treatment as determined by MTT assays performed in parallel.

SiHa cells [3] = experiment: Caspase-3/7 assay (Caspase-Glo 3/7); assay type: cell-based; conditions: INI-43 pre-treatment plus cisplatin, 48 h
Protocol: as §1

HeLa cells [4] = experiment: PARP cleavage by Western blot; assay type: cell-based
Protocol: (§2) For protein extraction, cells were washed with PBS and lysed using RIPA buffer (50 mM Tris-CI, pH 7.4, 150 mM NaCl, 1% (w/v) sodium deoxycholate, 0.1% (v/v) SDS, 1% (v/v) Triton X-100, 2 mM EGTA, 2 mM EDTA, 50 mM NaF, 5 mM Na2P2O7, 1× complete protease inhibitor cocktail (Roche) and 0.1 M Sodium Orthovanadate). For PARP cleavage analysis, dead cells were collected by centrifugation and combined with live cell lysates. Lysates were sonicated, centrifuged, and the supernatant quantified using the BCA Protein Assay Kit (Pierce, Thermo Scientific) according to the manufacturer's instructions. Proteins were subjected to Western blot analysis using the following antibodies: rabbit anti-Kpnβ1 (H-300, sc-11,367, Santa Cruz), rabbit anti-β-tubulin (H-235, sc-9104, Santa Cruz), rabbit anti-PARP1/2 antibody (H-250, sc-7150, Santa Cruz), mouse anti-GAPDH (0411, sc-47,724, Santa Cruz), rabbit anti-p21 (H-164, sc-756, Santa Cruz), rabbit anti-Mcl-1 (H-260, sc-20,679, Santa Cruz), mouse anti-cyclin D1 (HD11, sc-246, Santa Cruz), rabbit anti-c-Myc (N-262, sc-764, Santa Cruz), mouse anti-p53 (DO-7, M7001, DakoCytomation), mouse anti-XIAP (610,763, BD Biosciences), and rabbit anti-phospho-Histone H2AX (γH2AX, Ser139, 20E3, #9718, Cell Signal).

SiHa cells [5] = experiment: PARP cleavage by Western blot; assay type: cell-based
Protocol: as §2

[6] = system: p53 reporter activity in SiHa cells; experiment: p53-luciferase reporter assay; assay type: cell-based
Protocol: (§3) SiHa cells were transfected with 100 ng p65-luciferase reporter construct (containing five copies of the p65-binding site, Promega) or 200 ng p53-luciferase reporter construct (containing thirteen wildtype p53 binding sites, Addgene plasmid #16442, Addgene Plasmid Repository (el-Deiry W S, Tokino T, Velculescu V E, Levy D B, Parsons R, Trent J M, et al. WAF1, a potential mediator of p53 tumor suppression. Cell. 1993; 75(4):817-25) and 10 ng pRL-TK (encoding Renilla luciferase, Promega), using Genecellin transfection reagent (Celtic Molecular Diagnostics). The following day cells were treated with 5 μM INI-43 for 2 h, followed by 30 μM cisplatin for 24 h, and luciferase activity assayed using the Dual-Luciferase Report assay system (Promega), according to the manufacturer's instructions. Luciferase readings were measured using the Veritas™ microplate luminometer (Promega) and normalised to Renilla luciferase from the same extract.

[7] = system: p65 reporter activity in SiHa cells; experiment: p65-luciferase reporter assay; assay type: cell-based; conditions: pre-treated with INI-43 then cisplatin
Protocol: as §3

[8] = system: NFκB-p50 and NFκB-p65 in SiHa cells; experiment: Nuclear/cytoplasmic fractionation and Western blot; assay type: cell-based; conditions: INI-43-cisplatin CT vs cisplatin
Protocol: For protein extraction, cells were washed with PBS and lysed using RIPA buffer (50 mM Tris-CI, pH 7.4, 150 mM NaCl, 1% (w/v) sodium deoxycholate, 0.1% (v/v) SDS, 1% (v/v) Triton X-100, 2 mM EGTA, 2 mM EDTA, 50 mM NaF, 5 mM Na2P2O7, 1× complete protease inhibitor cocktail (Roche) and 0.1 M Sodium Orthovanadate). For PARP cleavage analysis, dead cells were collected by centrifugation and combined with live cell lysates. Lysates were sonicated, centrifuged, and the supernatant quantified using the BCA Protein Assay Kit (Pierce, Thermo Scientific) according to the manufacturer's instructions. […]
For nuclear/cytoplasmic protein extraction, cells were collected by trypsinization. […] The fractions were quantified using the BCA Protein Assay Kit (Pierce, Thermo Scientific) according to the manufacturer's instructions, followed by western blot analysis.

[9] = system: cyclin D1, c-Myc and XIAP; experiment: Western blot of NFκB targets; assay type: cell-based; conditions: INI-43-cisplatin combination vs single cisplatin, concentration dependent
Protocol: as §2

γH2AX = experiment: Western blot of phosphorylated Histone 2AX (DNA damage marker); assay type: cell-based; conditions: INI-43-cisplatin CT, 24 h, concentration dependent
Protocol: as §2

NFκB-p65 in cancer cells = conditions: van der Watt et al. 2016; cited from earlier work
[10] = INI-43 pre-treatment plus cisplatin

CN(C)CCCn1c(N)c(-c2nc3ccccc3[nH]2)c2nc3ccccc3nc21 [INI-43]
cell viability, combination treatment vs cisplatin alone after INI-43 washout (HeLa cells [1]; 2 h INI-43, removed before cisplatin treatment (washout 1 and 2), 48 h): significantly reduced cell viability
enhancement of cell death upon combination treatment after INI-43 washout (HeLa cells [1]; HeLa cells, vs INI-43 still present): slightly reduced
increase in caspase-3/7 activation, combination vs cisplatin only (HeLa cells [2]): 3.6 fold
increase in caspase-3/7 activation, combination vs cisplatin only (SiHa cells [3]): 2.8 fold
apoptosis (PARP cleavage), INI-43 on its own (HeLa cells [4]; 5 μM INI-43): negligible apoptosis
PARP cleavage, combination treated vs cisplatin only (HeLa cells [4]; [10]): enhanced PARP cleavage
apoptosis (PARP cleavage), INI-43 on its own (SiHa cells [5]; 5 μM INI-43): negligible apoptosis
PARP cleavage, combination treated vs cisplatin only (SiHa cells [5]; [10]): enhanced PARP cleavage
p53 reporter activity ([6]; 5 μM INI-43 alone, 24 h): small but significant increase
p53 reporter activity ([6]; INI-43 pre-treatment plus cisplatin vs cisplatin alone): significantly increased
cisplatin-induced increase in p65 activity [7]: reduced
levels of NFκB-p50 and NFκB-p65 in the nucleus [8]: reduced this effect
levels of cyclin D1, c-Myc and XIAP [9]: all reduced
γH2AX levels (γH2AX): increased
PMA-stimulated nuclear entry of NFκB-p65 (NFκB-p65 in cancer cells): prohibited
